Data as given in US20240082416A1, “AMATOXIN ANALOGS AND USES THEREOF” (THE UNIVERSITY OF BRITISH COLUMBIA, priority 2020, published 2024).
“And” between values parts separate entries of the source, which are not always exact repeats. Equal values may be shown once. Starred links: 1 amine or outer side, 2 acyl side, 3 side chain; linkers in the order of their positions; H or OH if unused. Positions of bridges follow the written chain, without caps; N, C: chain ends. Non-standard residues stand in square brackets, D forms with d. Residues, ends and D or L forms follow the SMILES beside them. Trp(2-yl) = O=C([C@H](Cc1c([*:3])[nH]c2ccccc12)N[*:1])[*:2]; Pro(trans-4-guanidino) = N=C(N)N[C@H]1CN[C@H](C(=O)O)C1; Pro(4R-SH) = O=C([C@@H]1C[C@@H](S[*:3])CN1[*:1])[*:2]; Ile(4R-OH,5-OH) = C[C@H]([C@H](N)C(=O)O)[C@@H](O)CO; X1 = N#C[C@@H]1C[C@@H](C(=O)[*:2])N([*:1])C1

Assays:
Pol II = molecular target: T1, Pol II (Homo sapiens, UniProt P24928); experiment: In vitro transcription runoff assay using HeLaScribe nuclear extract; type: biochemical; details: for Transcription activity E (%): mean ± standard deviation
T1 construct: HeLaScribe® nuclear extract containing Pol II and all other transcription factors; purchased Promega; host or cells: HeLa nuclear extract (endogenous protein)
Text: (h) In vitro transcription assay of synthetic amanitins containing analogs of Hyp: Primers were purchased from IDT via standard phosphoramidite chemistry. dNTP and rNTP were purchased from Thermofisher. GoTaq polymerase and HeLaScribe*Nuclear Extract in vitro Transcription System was purchased from Promega. Taq polymerase was purchased from NEB. [^32P] α-dGTP (3000 Ci/mmol 10 mCi/ml EasyTide) and [^32P] α-GTP (3000 Ci/mmol 10 mCi/ml EasyTide) were purchased from Perkin Elmer. QIAquick PCR purifcation kit was purchased from Qiagen. AcGFP1-N1 was a gift (Addgene plasmid #54705; http://n2t.net/addgene:54705; RRID:Addgene_54705). DNA Primer sequences were:
The DNA template for transcription runoff was synthesized by PCR with template pAcGFP-N1, and primers P1 and P2. To a final volume of 20 μL, 1 x GoTaq Buffer, 250 μM of each dNTP, 500 nM of each primers P1 and P2, […] pAcGFP-N1 and 0.05 U/μL GoTaq were employed to thermocycle for 30 cycles (30 s at 95° C., 30 s at 50° C. and 60 s at 72° C., Bio-Rad). A 1 μL aliquot of the amplified solution was resolved with 6×DNA loading dye in a 1% agarose gel containing […] and then visualized using GelDoc XR imager (Bio-Rad). Purification was completed via QIAquick PCR purification kit (Qiagen). The radioactive chromatographic standard was synthesized by PCR with template pAcGFP-N1, and primers P3 and P4. To a final volume of 50 μL, 1 x Thermopol Buffer, 200 μM of each dNTP, 500 nM of each primers P3 and P4, 10 pg/μL pAcGFP-N1 and 0.02 U/μL Vent polymerase, 1 μL [^32P] α-dGTP were employed to thermocycle for 30 cycles (30 s at 95° C., 30 s at 62° C. and 30 s at 72° C., Bio-Rad). A 1 μL aliquot of the amplified solution was resolved with 6×DNA loading dye in 8% denaturing PAGE and then visualized by autoradiography via the Typhoon 9200 imager (Molecular namics-Amersham-GE). Purification was completed via QIAquick PCR purification kit (Qiagen). The transcription runoff assay was modified from HeLaScribe® Nuclear Extract in vitro Transcription System (Promega). […]. The pellet was resolved by 8% denaturing PAGE and then visualized by autoradiography via the Typhoon 9200 imager (Molecular dynamics-Amersham-GE). Dosimetry was calculated by ImageJ, and the 3 parameter logistic fit was completed by Origin 2019 (OriginLab). […]
All data were presented in mean±standard deviation (n=3).

CHO cells = experiment: Viability assay against CHO cells (MTT colorimetric assay); type: cell-based, Chinese hamster; details: 72 h, replicates n = 1, 2, 3
[1] = as above; type: cell-based, Chinese hamster; details: Chinese hamster, CHO cells, 72 h, replicates n = 1, 2, 3, read-out: % viable cells; for viability at 72 h, 1e-05 M: 1e-005 M; for viability at 72 h, 1.25e-06 M: 1.25e-006 M; for viability at 72 h, 1.56e-07 M: 1.56e-007 M; for viability at 72 h, 2e-05 M: 2e-005 M; for viability at 72 h, 2.5e-06 M: 2.5e-006 M; for viability at 72 h, 3.125e-07 M: 3.125e-007 M; for viability at 72 h, 5e-06 M: 5e-006 M; for viability at 72 h, 6.25e-07 M: 6.25e-007 M; for viability at 72 h, 7.8e-08 M: 7.8e-008 M
[2] = IC50 (nM), Table 11, 3 parameter logistic fit
[3] = IC50 (nM), Table 12, n = 3, high values estimated from activity at [I]=1.0 μM

Row | SMILES | Transcription activity E (%) (Pol II; 30 nM) | Transcription activity E (%) (Pol II; 100 nM) | Transcription activity E (%) (Pol II; 300 nM) | Transcription activity E (%) (Pol II; 1000 nM) | IC50 (Pol II; IC50) | IC50 (Pol II; [2]) | IC50 (Pol II; [3]) | viability at 72 h, 1e-05 M [1] | viability at 72 h, 1.25e-06 M [1] | viability at 72 h, 1.56e-07 M [1] | viability at 72 h, 2e-05 M [1] | viability at 72 h, 2.5e-06 M [1] | viability at 72 h, 3.125e-07 M [1] | viability at 72 h, 5e-06 M [1] | viability at 72 h, 6.25e-07 M [1] | viability at 72 h, 7.8e-08 M [1] | Transcription activity E (%) (Pol II; 10 nM) | further results
1 | CC[C@H](C)[C@@H]1NC(=O)CNC(=O)[C@@H]2Cc3c([nH]c4ccccc34)SC[C@H](NC(=O)CNC1=O)C(=O)N[C@@H](CC(N)=O)C(=O)N1C[C@H](NC(=N)N)C[C@H]1C(=O)N[C@@H]([C@@H](C)[C@@H](O)CO)C(=O)N2 [Compound 7, Gdn-Pro-amanitin] (cyclo(CN[Pro(trans-4-guanidino)][Ile(4R-OH,5-OH)][Trp(2-yl)]GIG); thioether 1-5) | 77.3 ± 9.0% | 76.1 ± 13.2% | 56.6 ± 11.6% | 31.3 ± 5.8% | ~400 nM | 410 ± 80 nM | 410 ± 80 nM | 100% | 89% | 88% | 99% | 90% | 85% | 93% | 88% | 96% |  | Transcription activity E (%) (Pol II; 3000 nM): 14.1 ± 7.1%; IC50 fold higher than that of the natural product (Pol II; vs α-amanitin): approximately 50 fold; % viable cells (CHO cells; 1e-005 M, listed as Gdn-Pro-amanitin (7)): 102%; % viable cells (CHO cells; 1.25e-006 M, listed as Gdn-Pro-amanitin (7)): 86%; % viable cells (CHO cells; 1.56e-007 M, listed as Gdn-Pro-amanitin (7)): 91% and 80%; % viable cells (CHO cells; 2e-005 M, listed as Gdn-Pro-amanitin (7)): 101%; % viable cells (CHO cells; 2.5e-006 M, listed as Gdn-Pro-amanitin (7)): 82%; % viable cells (CHO cells; 3.125e-007 M, listed as Gdn-Pro-amanitin (7)): 86%; % viable cells (CHO cells; 6.25e-007 M, listed as Gdn-Pro-amanitin (7)): 83% and 84%; % viable cells (CHO cells; 7.8e-008 M, listed as Gdn-Pro-amanitin (7)): 92%
2 | CC[C@H](C)[C@@H]1NC(=O)CNC(=O)[C@@H]2Cc3c([nH]c4ccccc34)SC[C@H](NC(=O)CNC1=O)C(=O)N[C@@H](CC(N)=O)C(=O)N1C[C@H](S)C[C@H]1C(=O)N[C@@H]([C@@H](C)[C@@H](O)CO)C(=O)N2 [Compound 5, SH-Pro-amanitin] (cyclo(CN[Pro(4R-SH)][Ile(4R-OH,5-OH)][Trp(2-yl)]GIG); thioether 1-5) | 99.6 ± 11.6% | 91.2 ± 18.5% | 71.2 ±19.0% | 50.3 ± 20.8% | 910 ± 230 nM | 910 ± 330 nM | 910 ± 330 nM | 94% | 93% | 93% | 106% | 91% | 94% | 100% | 98% | 94% | 78.5 ± 26.6% | % viable cells (CHO cells; 1e-005 M, listed as SH-Pro-amanitin (5)): 95%; % viable cells (CHO cells; 1.25e-006 M, listed as SH-Pro-amanitin (5)): 92%; % viable cells (CHO cells; 2e-005 M, listed as SH-Pro-amanitin (5)): 97%; % viable cells (CHO cells; 2.5e-006 M, listed as SH-Pro-amanitin (5)): 99%; % viable cells (CHO cells; 3.125e-007 M, listed as SH-Pro-amanitin (5)): 90%; % viable cells (CHO cells; 5e-006 M, listed as SH-Pro-amanitin (5)): 90% and 96%; % viable cells (CHO cells; 6.25e-007 M, listed as SH-Pro-amanitin (5)): 92% and 95%; % viable cells (CHO cells; 7.8e-008 M, listed as SH-Pro-amanitin (5)): 89%
3 | CC[C@H](C)[C@@H]1NC(=O)CNC(=O)[C@@H]2Cc3c([nH]c4ccccc34)SC[C@H](NC(=O)CNC1=O)C(=O)N[C@@H](CC(N)=O)C(=O)N1C[C@H](C#N)C[C@H]1C(=O)N[C@@H]([C@@H](C)[C@@H](O)CO)C(=O)N2 [Compound 4, CN-Pro-amanitin] (cyclo(CN[X1][Ile(4R-OH,5-OH)][Trp(2-yl)]GIG); thioether 1-5) | 64.8 ± 7.4% | 74.0 ± 13.0% | 72.4 ± 9.7% | 52.3 ± 17.0% |  | 480 ± 380 nM | 480 ± 380 nM | 110% | 102% | 102% | 121% | 101% | 99% | 103% | 102% |  | 80.7 ± 7.9% | % viable cells (CHO cells; 1e-005 M, listed as CN-Pro-amanitin (4)): 90%; % viable cells (CHO cells; 1.25e-006 M, listed as CN-Pro-amanitin (4)): 91% and 92%; % viable cells (CHO cells; 1.56e-007 M, listed as CN-Pro-amanitin (4)): 93% and 87%; % viable cells (CHO cells; 2e-005 M, listed as CN-Pro-amanitin (4)): 118% and 108%; % viable cells (CHO cells; 2.5e-006 M, listed as CN-Pro-amanitin (4)): 91% and 87%; % viable cells (CHO cells; 3.125e-007 M, listed as CN-Pro-amanitin (4)): 92% and 90%; % viable cells (CHO cells; 5e-006 M, listed as CN-Pro-amanitin (4)): 92% and 90%; % viable cells (CHO cells; 6.25e-007 M, listed as CN-Pro-amanitin (4)): 89% and 92%
